The structures appear in SMILES notation. Structures can show the parent of a compound that is named as a salt. Starred links: 1 amine or outer side, 2 acyl side, 3 side chain; linkers in the order of their positions; H or OH if unused. Positions of bridges follow the written chain, without caps; N, C: chain ends. Non-standard residues stand in square brackets, D forms with d. Residues, ends and D or L forms follow the SMILES beside them. Groups on a side chain read outwards from the residue. *: point of attachment. Me3N+(CH2)2O(CH2)2O(CH2)2CO = C[N+](C)(C)CCOCCOCCC(=O)*; CH2CH2OCH2CH2OCH2CH2NMe3+ = C[N+](C)(C)CCOCCOCC*; Trp(7-Me) = Cc1cccc2c(C[C@H](N)C(=O)O)c[nH]c12; dLys(Me3) = C[N+](C)(C)CCCC[C@@H](N)C(=O)O; Dab(NMeAc) = CC(=O)N(C)CC[C@H](N)C(=O)O; γGlu = O=C(O)[C@H](CCC(=O)[*:2])N[*:1]; 2Nal = N[C@@H](Cc1ccc2ccccc2c1)C(=O)O; AEF = NCCOc1ccc(C[C@H](N)C(=O)O)cc1; X10 = C[N+](C)(C)C[C@H](CC(=O)O)N*; 3Pal = N[C@@H](Cc1cccnc1)C(=O)O; Myristoyl = CCCCCCCCCCCCCC(=O)*; Lys(Me) = CNCCCC[C@H](N)C(=O)O; Pen = CC(C)(S)[C@H](N)C(=O)O; Thp = NC1(C(=O)O)CCOCC1; PEG2 = NCCOCCOCCC(=O)O; X3 = C[N+](C)(C)CCCCC*; AEEA = NCCOCCOCC(=O)O; Tfa = O=C(C(F)(F)F)*; Sar = CNCC(=O)O; X58 = NCCCCC*

The data set can be described thus: Exposed Polar Surface Area (EPSA). The class given is physicochemical. The settings on record: SFC on Chirex 3014 column; sample 1 mM DMSO stock; read-out: EPSA. Put shortly: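 EPSA, in Å^2, is read from SFC retention time through a linear relationship established with eight calibration standards. Separation uses a Chirex 3014 stationary phase, 35 °C, 14 MPa back pressure, and a 5–60% methanol/ammonium formate modifier gradient in CO2.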
As to `CC(=O)NCCCC[C@@H]1NC(=O)[C@H](Cc2c[nH]c3c(C)cccc23)NC(=O)[C@H]([C@@H](C)O)NC(=O)[C@H](CC(N)=O)NC(=O)[C@@H](NC(=O)[C@@H](CCCC[N+](C)(C)C)NC(C)=O)C(C)(C)SSC(C)(C)[C@@H](C(=O)N[C@@H](Cc2ccc(OCCCCC[N+](C)(C)C)cc2)C(=O)N[C@@H](Cc2ccc3ccccc3c2)C(=O)NC2(C(=O)N[C@@H](CCCCNC(C)=O)C(=O)N[C@@H](CC(N)=O)C(=O)N[C@@H](Cc3cccnc3)C(=O)N(C)CC(N)=O)CCOCC2)NC1=O` [compound 450, MeCO-k(Me)3-Pen(3)-N-T-7MeW-K(Ac)-Pen(3)-TMAPF-2Nal-THP-K(Ac)-N-3Pya-Sar-CONH2] (Ac-[dLys(Me3)][Pen]NT[Trp(7-Me)]K(Ac)[Pen]Y(X3)[2Nal][Thp]K(Ac)N[3Pal][Sar]-NH2; disulfide 2-7), the EPSA turned out to be 165 A^2.

In the case of `CC(=O)NCCCC[C@@H]1NC(=O)[C@H](Cc2c[nH]c3c(C)cccc23)NC(=O)[C@H]([C@@H](C)O)NC(=O)[C@H](CC(N)=O)NC(=O)[C@@H](NC(=O)CCCCC[N+](C)(C)C)C(C)(C)SSC(C)(C)[C@@H](C(=O)N[C@@H](Cc2ccc(OCCNC(=O)CCOCCOCC[N+](C)(C)C)cc2)C(=O)N[C@@H](Cc2ccc3ccccc3c2)C(=O)NC2(C(=O)N[C@@H](CNC(C)=O)C(=O)N[C@@H](CC(N)=O)C(=O)N[C@@H](Cc3cccnc3)C(=O)N(C)CC(N)=O)CCOCC2)NC1=O` [compound 192], the EPSA came to 149 A^2.

In the case of `CC(=O)NCCCC[C@H](NC(=O)C1(NC(=O)[C@H](Cc2ccc3ccccc3c2)NC(=O)[C@H](Cc2ccc(OCCN)cc2)NC(=O)[C@H]2NC(=O)[C@H](CCC(=O)N(C)C)NC(=O)[C@H](Cc3c[nH]c4c(C)cccc34)NC(=O)[C@H]([C@@H](C)O)NC(=O)[C@H](CC(N)=O)NC(=O)[C@@H](NC(=O)C(F)(F)F)C(C)(C)SSC2(C)C)CCOCC1)C(=O)N[C@@H](CC(N)=O)C(=O)N[C@@H](Cc1cccnc1)C(=O)N(C)CC(N)=O` [compound 61] (Tfa-[Pen]NT[Trp(7-Me)]E(NMe2)[Pen][AEF][2Nal][Thp]K(Ac)N[3Pal][Sar]-NH2; disulfide 1-6 (inferred)), the EPSA stood at 159 A^2.

For `CC(=O)N(C)CCCC[C@@H]1NC(=O)[C@H](Cc2c[nH]c3c(C)cccc23)NC(=O)[C@H]([C@@H](C)O)NC(=O)[C@H](CC(=O)N(C)C)NC(=O)[C@@H](NC(=O)CCOCCOCC[N+](C)(C)C)C(C)(C)SSC(C)(C)[C@@H](C(=O)N[C@@H](Cc2ccc(OCCOCCOCC[N+](C)(C)C)cc2)C(=O)N[C@@H](Cc2ccc3ccccc3c2)C(=O)NC2(C(=O)N[C@@H](CCN(C)C(C)=O)C(=O)N[C@@H](CC(N)=O)C(=O)N[C@@H](Cc3cccnc3)C(=O)N(C)CC(=O)N(C)C)CCOCC2)NC1=O` [compound 209, cPEG3aCO-Pen(3)-N(N(Me)2)-T-7MeW-K(NMeAc)-Pen(3)-APEG3F-2Nal-THP-Dab(NMeAc)-N-3Pya-Sar-CON(Me)2] ({Me3N+(CH2)2O(CH2)2O(CH2)2CO}-[Pen]D(NMe2)T[Trp(7-Me)][Lys(Me)](Ac)[Pen]Y(CH2CH2OCH2CH2OCH2CH2NMe3+)[2Nal][Thp][Dab(NMeAc)]N[3Pal][Sar]-NMe2; disulfide 1-6), the EPSA was determined as 139 A^2.

For the molecule `CCCCCCCCCCCCCC(=O)N[C@@H](CCC(=O)NCCOCCOCC(=O)NCCOCCOCC(=O)NCCCC[C@@H]1NC(=O)[C@@H](NC(=O)[C@@H](CCCCNC(=O)COCCOCCNC(=O)COCCOCCNC(=O)CC[C@H](NC(=O)CCCCCCCCCCCCC)C(=O)O)NC(=O)CCOCCOCC[N+](C)(C)C)C(C)(C)SSC(C)(C)[C@@H](C(=O)N[C@@H](Cc2ccc(OCCCCC[N+](C)(C)C)cc2)C(=O)N[C@@H](Cc2ccc3ccccc3c2)C(=O)NC2(C(=O)N[C@@H](CCCCN(C)C(C)=O)C(=O)N[C@@H](CC(N)=O)C(=O)N[C@@H](Cc3cccnc3)C(=O)N(C)CC(=O)N(C)C)CCOCC2)NC(=O)[C@H](CCCCN(C)C(C)=O)NC(=O)[C@H](Cc2c[nH]c3c(C)cccc23)NC(=O)[C@H]([C@@H](C)O)NC1=O)C(=O)O` [compound 381, cPEG3aCO-k(PEG2PEG2gEC14)-Pen(3)-K(PEG2PEG2gEC14)-T-7MeW-K(NMeAc)-Pen(3)-TMAPF-2Nal-THP-K(NMeAc)-N-3Pya-Sar-CON(Me)2] ({Me3N+(CH2)2O(CH2)2O(CH2)2CO}-[dK]([AEEA-AEEA-γGlu-Myristoyl])[Pen]K([AEEA-AEEA-γGlu-Myristoyl])T[Trp(7-Me)][Lys(Me)](Ac)[Pen]Y(X3)[2Nal][Thp][Lys(Me)](Ac)N[3Pal][Sar]-NMe2; disulfide 2-7), the EPSA came to 171 A^2.

On to `CC(=O)N[C@@H]1C(=O)N[C@@H](CC(=O)N(C)C)C(=O)N[C@@H]([C@@H](C)O)C(=O)N[C@@H](Cc2c[nH]c3c(C)cccc23)C(=O)N[C@@H](CCCCN(C)C(C)=O)C(=O)N[C@H](C(=O)N[C@@H](Cc2ccc(OCCCCC[N+](C)(C)C)cc2)C(=O)N[C@@H](Cc2ccc3ccccc3c2)C(=O)NC2(C(=O)N[C@@H](CCCCN(C)C(C)=O)C(=O)N[C@@H](CC(N)=O)C(=O)N[C@@H](Cc3cccnc3)C(=O)N(C)CC(=O)N(C)C)CCOCC2)C(C)(C)SSC1(C)C` [compound 190, MeCO-Pen(3)-N(N(Me)2)-T-7MeW-K(NMeAc)-Pen(3)-TMAPF-2Nal-THP-K(NMeAc)-N-3Pya-Sar-CON(Me)2] (Ac-[Pen]D(NMe2)T[Trp(7-Me)][Lys(Me)](Ac)[Pen]Y(X3)[2Nal][Thp][Lys(Me)](Ac)N[3Pal][Sar]-NMe2; disulfide 1-6 (inferred)), for which the EPSA came out at 137 A^2.

In the case of `CC(=O)N(C)CCCC[C@@H]1NC(=O)[C@H](Cc2c[nH]c3c(C)cccc23)NC(=O)[C@H]([C@@H](C)O)NC(=O)[C@H](CC(=O)N(C)C)NC(=O)[C@@H](NC(=O)CCOCCOCCN)C(C)(C)SSC(C)(C)[C@@H](C(=O)N[C@@H](Cc2ccc(OCCCCCN)cc2)C(=O)N[C@@H](Cc2ccc3ccccc3c2)C(=O)NC2(C(=O)N[C@@H](CCCCN(C)C(C)=O)C(=O)N[C@@H](CC(N)=O)C(=O)N[C@@H](Cc3cccnc3)C(=O)N(C)CC(=O)N(C)C)CCOCC2)NC1=O` [compound 529, cPEG3AmCO-Pen(3)-N(N(Me)2)-T-7MeW-K(NMeAc)-Pen(3)-APF-2Nal-THP-K(NMeAc)-N-3Pya-Sar-CON(Me)2] (H-[PEG2][Pen]D(NMe2)T[Trp(7-Me)][Lys(Me)](Ac)[Pen]Y(X58)[2Nal][Thp][Lys(Me)](Ac)N[3Pal][Sar]-NMe2; disulfide 2-7), the EPSA came to 161 A^2.

For the molecule `CC(=O)NCCCC[C@@H]1NC(=O)[C@H](Cc2c[nH]c3c(C)cccc23)NC(=O)[C@H]([C@@H](C)O)NC(=O)[C@H](CC(N)=O)NC(=O)[C@@H](NC(C)=O)C(C)(C)SSC(C)(C)[C@@H](C(=O)N[C@@H](Cc2ccc(OCCN)cc2)C(=O)N[C@@H](Cc2ccc3ccccc3c2)C(=O)NC2(C(=O)N[C@@H](CCC(=O)N[C@@H](CC(=O)O)C[N+](C)(C)C)C(=O)N[C@@H](CC(N)=O)C(=O)N[C@@H](Cc3cccnc3)C(=O)N(C)CC(N)=O)CCOCC2)NC1=O` [compound 128] (Ac-[Pen]NT[Trp(7-Me)]K(Ac)[Pen][AEF][2Nal][Thp]E(X10)N[3Pal][Sar]-NH2; disulfide 1-6), the EPSA is 175 A^2.
